In patent US20260131016A1, “NOVEL AURISTATIN ANALOGS AND IMMUNOCONJUGATES THEREOF” (ADCENTRX THERAPEUTICS INC., priority 2021, published 2026):
Like-named read-outs stand apart in the source and are kept apart here.

Legend:
T47D cells = assay: Cell viability (Cell Titer Glo 2.0) in T47D cells, 120 hours; assay type: cell-based
Procedure: (§1) HCC1954 breast ductal carcinoma and T47D cells (ATCC, Manassas, VA, USA) were seeded into 384-well white-walled culture plates and allowed to adhere for 2-4 hours. Cells were then treated at least in duplicate by addition of 5-fold serially diluted test articles prepared at 2× final concentration and incubated at 37° C. for 120 hours. Cell viability following treatment was determined by Cell Titer Glo 2.0 Assay (Promega, Madison, WI, USA) and normalized to non-treated controls. Dose-response relationships were analyzed using GraphPad Prism (La Jolla, CA, USA), and IC50 values were derived from non-linear regression analyses using a 4-parameter logistic equation.

[1] = test system: HCC1954 breast ductal carcinoma; assay: Cell viability (Cell Titer Glo 2.0) in HCC1954, 120 hours; assay type: cell-based; details: for potency compared to the 1,4-NH2 configuration of the P5 moiety in 19 and 26: HCC1954 and T47D assays
Procedure: as §1

[2] = N-methylated analogs 1,2-/1,3-/1,4-NH2, relative to the 1,3-NH2 analog (=1)
[3] = NCH3-amide compared to its NH-amide analog (=1)
[4] = Homo sapiens, HCC1954, 120 h, read-out: IC50 (nM), in vitro potency in HCC1954
[5] = Trastuzumab conjugate of the numbered linker-payload, HCC1954, read-out: ADC (Trastuzumab) IC50 in HCC1954 assay

CC[C@H](C)[C@@H]([C@@H](CC(=O)N1CCC[C@H]1[C@H](OC)[C@@H](C)C(=O)N(C)CCc1cccc(N)c1)OC)N(C)C(=O)[C@@H](NC(=O)[C@H](C(C)C)N(C)C)C(C)C [Compound 1, (S)-N-((3R,4S,5S)-1-((S)-2-((1R,2R)-3-((3-aminophenethyl)(methyl)amino)-1-methoxy-2-methyl-3-oxopropyl)pyrrolidin-1-yl)-3-methoxy-5-methyl-1-oxoheptan-4-yl)-2-((S)-2-(dimethylamino)-3-methylbutanamido)-N,3-dimethylbutanamide]
IC50 (fold difference) T47D (T47D cells; [2]): 1 fold difference | IC50 (fold difference) T47D (T47D cells; [3]): 1.6 fold difference | potency compared to the 1,4-NH2 configuration of the P5 moiety in 19 and 26 [1]: more potent | IC50 [1, 4]: < 5 nM | IC50 (fold difference) HCC1954 [1, 2]: 1 fold difference | IC50 (fold difference) HCC1954 [1, 3]: 1.5 fold difference

CC[C@H](C)[C@@H]([C@@H](CC(=O)N1CCC[C@H]1[C@H](OC)[C@@H](C)C(=O)N(C)CCc1cccc(N)c1)OC)N(C)C(=O)[C@@H](NC(=O)[C@H](C)N(C)C)C(C)C [Compound 2, (S)-N-((3R,4S,5S)-1-((S)-2-((1R,2R)-3-((3-aminophenethyl)(methyl)amino)-1-methoxy-2-methyl-3-oxopropyl)pyrrolidin-1-yl)-3-methoxy-5-methyl-1-oxoheptan-4-yl)-2-((S)-2-(dimethylamino)propanamido)-N,3-dimethylbutanamide]
IC50 (fold difference) T47D (T47D cells; [2]): 1 fold difference | potency compared to the 1,4-NH2 configuration of the P5 moiety in 19 and 26 [1]: more potent | IC50 [1, 4]: < 5 nM | IC50 (fold difference) HCC1954 [1, 2]: 1 fold difference

CC[C@H](C)[C@@H]([C@@H](CC(=O)N1CCC[C@H]1[C@H](OC)[C@@H](C)C(=O)N(C)CCc1ccccc1N)OC)N(C)C(=O)[C@@H](NC(=O)[C@H](C(C)C)N(C)C)C(C)C [Compound 14, (S)-N-((3R,4S,5S)-1-((S)-2-((1R,2R)-3-((2-aminophenethyl)(methyl)amino)-1-methoxy-2-methyl-3-oxopropyl)pyrrolidin-1-yl)-3-methoxy-5-methyl-1-oxoheptan-4-yl)-2-((S)-2-(dimethylamino)-3-methylbutanamido)-N,3-dimethylbutanamide]
IC50 (fold difference) T47D (T47D cells; [2]): 1.3 fold difference | IC50 (fold difference) T47D (T47D cells; [3]): 1.8 fold difference | potency compared to the 1,4-NH2 configuration of the P5 moiety in 19 and 26 [1]: more potent | IC50 [1, 4]: < 5 nM | IC50 (fold difference) HCC1954 [1, 2]: 0.8 fold difference | IC50 (fold difference) HCC1954 [1, 3]: 2.0 fold difference

CC[C@H](C)[C@@H]([C@@H](CC(=O)N1CCC[C@H]1[C@H](OC)[C@@H](C)C(=O)N(C)CCc1cccc(NC(=O)[C@H](C)NC(=O)[C@H](C)NC(=O)CN2C(=O)C=CC2=O)c1)OC)N(C)C(=O)[C@@H](NC(=O)[C@H](C(C)C)N(C)C)C(C)C [Compound 28, (S)-2-((S)-2-(dimethylamino)-3-methylbutanamido)-N-((3R,4S,5S)-1-((S)-2-((1R,2R)-3-((3-((S)-2-((S)-2-(2-(2,5-dioxo-2,5-dihydro-1H-pyrrol-1-yl)acetamido)propanamido)propanamido)phenethyl)(methyl)amino)-1-methoxy-2-methyl-3-oxopropyl)pyrrolidin-1-yl)-3-methoxy-5-methyl-1-oxoheptan-4-yl)-N,3-dimethylbutanamide 2,2,2-trifluoroacetate]
IC50 [1, 5]: < 5 nM

CC[C@H](C)[C@@H]([C@@H](CC(=O)N1CCC[C@H]1[C@H](OC)[C@@H](C)C(=O)N(C)CCc1cccc(NC(=O)[C@H](C)NC(=O)[C@H](C)NC(=O)CN2C(=O)C=CC2=O)c1)OC)N(C)C(=O)[C@@H](NC(=O)[C@H](C)N(C)C)C(C)C [Compound 29, (S)-2-((S)-2-(dimethylamino)propanamido)-N-((3R,4S,5S)-1-((S)-2-((1R,2R)-3-((3-((S)-2-((S)-2-(2-(2,5-dioxo-2,5-dihydro-1H-pyrrol-1-yl)acetamido)propanamido)propanamido)phenethyl)(methyl)amino)-1-methoxy-2-methyl-3-oxopropyl)pyrrolidin-1-yl)-3-methoxy-5-methyl-1-oxoheptan-4-yl)-N,3-dimethylbutanamide 2,2,2-trifluoroacetate]
IC50 [1, 5]: < 5 nM

CC[C@H](C)[C@@H]([C@@H](CC(=O)N1CCC[C@H]1[C@H](OC)[C@@H](C)C(=O)N(C)CCc1cccc(NC(=O)[C@H](C)NC(=O)[C@H](C)NC(=O)CN2C(=O)C=CC2=O)c1)OC)N(C)C(=O)[C@@H](NC(=O)[C@@H](C)N(C)C)C(C)C [Compound 30, (S)-2-((R)-2-(dimethylamino)propanamido)-N-((3R,4S,5S)-1-((S)-2-((1R,2R)-3-((3-((S)-2-((S)-2-(2-(2,5-dioxo-2,5-dihydro-1H-pyrrol-1-yl)acetamido)propanamido)propanamido)phenethyl)(methyl)amino)-1-methoxy-2-methyl-3-oxopropyl)pyrrolidin-1-yl)-3-methoxy-5-methyl-1-oxoheptan-4-yl)-N,3-dimethylbutanamide 2,2,2-trifluoroacetate]
IC50 [1, 5]: < 5 nM

CC[C@H](C)[C@@H]([C@@H](CC(=O)N1CCC[C@H]1[C@H](OC)[C@@H](C)C(=O)N(C)CCc1cccc(NC(=O)[C@H](C)NC(=O)[C@H](C)NC(=O)CN2C(=O)C=CC2=O)c1)OC)N(C)C(=O)[C@@H](NC(=O)CN(C)C)C(C)C [Compound 31, (S)-2-(2-(dimethylamino)acetamido)-N-((3R,4S,5S)-1-((S)-2-((IR,2R)-3-((3-((S)-2-((S)-2-(2-(2,5-dioxo-2,5-dihydro-1H-pyrrol-1-yl)acetamido)propanamido)propanamido)phenethyl)(methyl)amino)-1-methoxy-2-methyl-3-oxopropyl)pyrrolidin-1-yl)-3-methoxy-5-methyl-1-oxoheptan-4-yl)-N,3-dimethylbutanamide 2,2,2-trifluoroacetate]
IC50 [1, 5]: < 5 nM

CC[C@H](C)[C@@H]([C@@H](CC(=O)N1CCC[C@H]1[C@H](OC)[C@@H](C)C(=O)N(C)CCc1cccc(NC(=O)[C@H](C)NC(=O)[C@H](C)NC(=O)CN2C(=O)C=CC2=O)c1)OC)N(C)C(=O)[C@@H](NC(=O)C(C)(C)N(C)C)C(C)C [Compound 32, (S)-2-(2-(dimethylamino)-2-methylpropanamido)-N-((3R,4S,5S)-1-((S)-2-((1R,2R)-3-((3-((S)-2-((S)-2-(2-(2,5-dioxo-2,5-dihydro-1H-pyrrol-1-yl)acetamido)propanamido)propanamido)phenethyl)(methyl)amino)-1-methoxy-2-methyl-3-oxopropyl)pyrrolidin-1-yl)-3-methoxy-5-methyl-1-oxoheptan-4-yl)-N,3-dimethylbutanamide 2,2,2-trifluoroacetate]
IC50 [1, 5]: < 5 nM

CC[C@H](C)[C@@H]([C@@H](CC(=O)N1CCC[C@H]1[C@H](OC)[C@@H](C)C(=O)N(C)CCc1cccc(NC(=O)[C@H](C)NC(=O)[C@H](C)NC(=O)CN2C(=O)C=CC2=O)c1)OC)N(C)C(=O)[C@@H](NC(=O)C1(N(C)C)CCC1)C(C)C [Compound 33, 1-(dimethylamino)-N-((S)-1-(((3R,4S,5S)-1-((S)-2-((1R,2R)-3-((3-((S)-2-((S)-2-(2-(2,5-dioxo-2,5-dihydro-1H-pyrrol-1-yl)acetamido)propanamido)propanamido)phenethyl)(methyl)amino)-1-methoxy-2-methyl-3-oxopropyl)pyrrolidin-1-yl)-3-methoxy-5-methyl-1-oxoheptan-4-yl)(methyl)amino)-3-methyl-1-oxobutan-2-yl)cyclobutanecarboxamide 2,2,2-trifluoroacetate]
IC50 [1, 5]: > 10 nM

CC[C@H](C)[C@@H]([C@@H](CC(=O)N1CCC[C@H]1[C@H](OC)[C@@H](C)C(=O)N(C)CCc1cccc(NC(=O)[C@H](C)NC(=O)[C@H](C)NC(=O)CN2C(=O)C=CC2=O)c1)OC)N(C)C(=O)[C@@H](NC(=O)[C@H]1CCCN1C)C(C)C [Compound 37, (R)-N-((S)-1-(((3R,4S,5S)-1-((S)-2-((IR,2R)-3-((3-((S)-2-((S)-2-(2-(2,5-dioxo-2,5-dihydro-1H-pyrrol-1-yl)acetamido)propanamido)propanamido)phenethyl)(methyl)amino)-1-methoxy-2-methyl-3-oxopropyl)pyrrolidin-1-yl)-3-methoxy-5-methyl-1-oxoheptan-4-yl)(methyl)amino)-3-methyl-1-oxobutan-2-yl)-1-methylpyrrolidine-2-carboxamide 2,2,2-trifluoroacetate]
IC50 [1, 5]: < 5 nM

CC[C@H](C)[C@@H]([C@@H](CC(=O)N1CCC[C@H]1[C@H](OC)[C@@H](C)C(=O)N(C)CCc1cccc(NC(=O)[C@H](C)NC(=O)[C@H](C)NC(=O)CN2C(=O)C=CC2=O)c1)OC)N(C)C(=O)[C@@H](NC(=O)C(C)(C)CN(C)C)C(C)C [Compound 38, (S)-2-(3-(dimethylamino)-2,2-dimethylpropanamido)-N-((3R,4S,5S)-1-((S)-2-((1R,2R)-3-((3-((S)-2-((S)-2-(2-(2,5-dioxo-2,5-dihydro-1H-pyrrol-1-yl)acetamido)propanamido)propanamido)phenethyl)(methyl)amino)-1-methoxy-2-methyl-3-oxopropyl)pyrrolidin-1-yl)-3-methoxy-5-methyl-1-oxoheptan-4-yl)-N,3-dimethylbutanamide 2,2,2-trifluoroacetate]
IC50 [1, 5]: > 10 nM

CC[C@H](C)[C@@H]([C@@H](CC(=O)N1CCC[C@H]1[C@H](OC)[C@@H](C)C(=O)N[C@@H](Cc1ccccc1)c1nccs1)OC)N(C)C(=O)[C@@H](NC(=O)[C@H](C(C)C)N(C)C)C(C)C [Dolastatin 10, dolastatin 10, reference compound]
IC50[N—Me amide]/IC50[NH-amide] ([1]; HCC1954 5-Day Assay, N-methylation of the amide between P4 and P5): 240
